Measurements reported in patent publication US6780616B1, “Antibiotic caprazamycins and process for producing the same” (Zaidan Hojin Biseibutsu Kagaku Kenkyu Kai Corp., priority 1999, dated 2004).
Values after ≈ are worked out from the molar mass of the structure shown.

How the values were obtained:
[1] = system: Mycobacterium avium kirchberg NIHJ-1605; experiment: Antibacterial spectrum, serial dilution in Middlebrook 7H9 liquid medium; type: cell-based; design: unit not given here
Method: (§1) The antibacterial spectrum of each of caprazamycins A, B, C, E and F against Mycobacterium tuberculosis, and against atypical acid-fast bacteria, Mycobacterium avium kirchberg and Mycobacterium intracellulare, were measured in a Middlebrook 7H9 liquid medium by a serial dilution method. At the same time, antibacterial spectra of rifampicin (RMP) and isonicotinic acid hydrazide (INH) (as comparative drug) against the above-mentioned acid-fast bacteria were measured by the same serial dilution method.

[2] = system: Mycobacterium tuberculosis H37Rv NIHJ-1633; experiment: as above; type: cell-based; design: unit not given here
Method: as §1

[3] = system: Mycobacterium intracellulare E-1 NIHJ-1618; experiment: as above; type: cell-based; design: unit not given here
Method: as §1

[4] = system: Mycobacterium phlei; experiment: Antibacterial spectrum, serial dilution on 1% glycerin-supplemented nutrient agar; type: cell-based; details: Mycolicibacterium phlei, read-out: Minimum growth inhibitory concentration
Method: (§2) The antibacterial spectrum of caprazamycin A against a variety of microorganisms were measured on a 1% glycerin-supplemented nutrient agar medium by a serial dilution method according to the standard method as provided by Japanese Society of Chemotherapy.
(§3) The antibacterial spectrum of caprazamycin B against a variety of microorganisms were measured on a 1% glycerin-supplemented nutrient agar medium by a serial dilution method according to the standard method as provided by Japanese Society of Chemotherapy.
(§4) The antibacterial spectrum of caprazamycin C against a variety of microorganisms were measured on a 1% glycerin-supplemented nutrient agar medium by a serial dilution method according to the standard method as provided by Japanese Society of Chemotherapy.
(§5) The antibacterial spectrum of caprazamycin E against a variety of microorganisms were measured on a 1% glycerin-supplemented nutrient agar medium by a serial dilution method according to the standard method as provided by Japanese Society of Chemotherapy.
(§6) The antibacterial spectrum of caprazamycin F against a variety of microorganisms were measured on a 1% glycerin-supplemented nutrient agar medium by a serial dilution method according to the standard method as provided by Japanese Society of Chemotherapy.

[5] = system: Mycobacterium smegmatis ATCC607 SM-R (streptomycin-resistant); experiment: as above; type: cell-based; details: Mycolicibacterium smegmatis, ATCC607, read-out: Minimum growth inhibitory concentration
Method: as §2, §3, §4, §5, §6

[6] = system: Mycobacterium vaccae ATCC15483; experiment: as above; type: cell-based; details: Mycolicibacterium vaccae, read-out: Minimum growth inhibitory concentration
Method: as §2, §3, §4, §5, §6

[7] = system: Mycobacterium smegmatis ATCC607; experiment: as above; type: cell-based; details: Mycolicibacterium smegmatis, read-out: Minimum growth inhibitory concentration
Method: as §2, §3, §4, §5, §6

[8] = system: Mycobacterium smegmatis ATCC607 RFP-R (rifampicin-resistant); experiment: as above; type: cell-based; details: Mycolicibacterium smegmatis, ATCC607, read-out: Minimum growth inhibitory concentration
Method: as §2, §3, §4, §5, §6

[9] = system: Mycobacterium smegmatis ATCC607 PM-R (paromomycin-resistant); experiment: as above; type: cell-based; details: Mycolicibacterium smegmatis, ATCC607, read-out: Minimum growth inhibitory concentration
Method: as §2, §3, §4, §5, §6

[10] = system: Mycobacterium smegmatis ATCC607 ST-R (streptothricin-resistant); experiment: as above; type: cell-based; details: Mycolicibacterium smegmatis, ATCC607, read-out: Minimum growth inhibitory concentration
Method: as §2, §3, §4, §5, §6

[11] = system: Mycobacterium smegmatis ATCC607 VM-R (viomycin-resistant); experiment: as above; type: cell-based; details: Mycolicibacterium smegmatis, ATCC607, read-out: Minimum growth inhibitory concentration
Method: as §2, §3, §4, §5, §6

[12] = system: Mycobacterium smegmatis ATCC607 KM-R (kanamycin-resistant); experiment: as above; type: cell-based; details: Mycolicibacterium smegmatis, ATCC607, read-out: Minimum growth inhibitory concentration
Method: as §2, §3, §4, §5, §6

[13] = system: Mycobacterium fortuitum; experiment: as above; type: cell-based; details: Mycolicibacterium fortuitum, read-out: Minimum growth inhibitory concentration
Method: as §2, §3, §4, §5, §6

[14] = system: Mycobacterium smegmatis ATCC607 CPM-R (capreomycin-resistant); experiment: as above; type: cell-based; details: Mycolicibacterium smegmatis, ATCC607, read-out: Minimum growth inhibitory concentration
Method: as §2, §3, §4, §5, §6

[15] = system: Bacillus cereus ATCC10702; experiment: Antibacterial spectrum, serial dilution on Müller-Hinton agar; type: cell-based; details: read-out: Minimum growth inhibitory concentration
Method: (§7) The antibacterial spectrum of caprazamycin B against a variety of microorganisms other than the microorganisms as specified in Table 2 were measured on Müller-Hinton agar medium by a serial dilution method according to the standard method as provided by Japanese Society of Chemotherapy.

[16] = system: Micrococcus luteus FDA16; experiment: as above; type: cell-based; details: read-out: Minimum growth inhibitory concentration
Method: as §7

[17] = system: Staphylococcus aureus Smith; experiment: as above; type: cell-based; details: read-out: Minimum growth inhibitory concentration
Method: as §7

[18] = system: Corynebacterium bovis 1810; experiment: as above; type: cell-based; details: read-out: Minimum growth inhibitory concentration
Method: as §7

[19] = system: Micrococcus luteus PCI1001; experiment: as above; type: cell-based; details: read-out: Minimum growth inhibitory concentration
Method: as §7

[20] = system: Staphylococcus aureus FDA209P; experiment: as above; type: cell-based; details: read-out: Minimum growth inhibitory concentration
Method: as §7

[21] = system: mice (ICR type, 4 weeks-aged, male); experiment: Toxicity in mice after intravenous administration; type: in vivo; details: intravenously, 75 mg/kg
Text: The dose of a caprazamycin of the general formula (I) or a salt thereof as an active ingredient in the composition of this invention may depend upon the nature of bacterial infections to be treated, a purpose of the therapeutic treatment, degree of the patient's conditions and so on. However, an optimal dose of a caprazamycin can be decided by experts through suitable preliminary tests.

[22] = system: Bacillus subtilis NRRL B-558; experiment: Antibacterial spectrum, serial dilution on Müller-Hinton agar; type: cell-based; details: NRRLB558, read-out: Minimum growth inhibitory concentration
[23] = system: Staphylococcus aureus MS9610 (multiple drug-resistant); experiment: as above; type: cell-based; details: read-out: Minimum growth inhibitory concentration
[24] = system: Staphylococcus aureus No.17 (methicillin-resistant); experiment: as above; type: cell-based; details: read-out: Minimum growth inhibitory concentration
[25] = system: Bacillus subtilis PCI1219; experiment: as above; type: cell-based; details: read-out: Minimum growth inhibitory concentration
[26] = system: Escherichia coli NIHJ; experiment: as above; type: cell-based; details: read-out: Minimum growth inhibitory concentration
[27] = system: Staphylococcus aureus TY-04282 (methicillin-resistant); experiment: as above; type: cell-based; details: read-out: Minimum growth inhibitory concentration
[28] = system: Staphylococcus aureus No.5 (methicillin-resistant); experiment: as above; type: cell-based; details: read-out: Minimum growth inhibitory concentration
[29] = system: Staphylococcus aureus MS16526 (methicillin-resistant); experiment: as above; type: cell-based; details: read-out: Minimum growth inhibitory concentration
[30] = system: Bacillus anthracis; experiment: microbe, parasite or virus in culture; type: cell-based; details: read-out: Minimum growth inhibitory concentration

SMILES	Minimum Inhibitory Concentration of Compound tested against Test Bacteria [1]	Minimum Inhibitory Concentration of Compound tested against Test Bacteria [2]	Minimum Inhibitory Concentration of Compound tested against Test Bacteria [3]	MIC [4] [µg/mL]	MIC [5] [µg/mL]	MIC [6] [µg/mL]	MIC [7] [µg/mL]	MIC [8] [µg/mL]	MIC [9] [µg/mL]	MIC [10] [µg/mL]	MIC [11] [µg/mL]	MIC [12] [µg/mL]	MIC [13] [µg/mL]	MIC [14] [µg/mL]	also measured
CCCCCCCCCCCCC(CC(=O)OC1CN(C)C(C(OC2OC(CN)C(O)C2O)C2OC(n3ccc(=O)[nH]c3=O)C(O)C2O)C(=O)N(C)C1C(=O)O)OC(=O)CC(C)CC(=O)OC1OC(C)C(OC)C(OC)C1OC (stereo not shown) [Caprazamycin C, caprazamycin C]	<0.025	0.78	0.78	1.56 (≈ 1.38 µM)	1.56 (≈ 1.38 µM)	0.39 (≈ 0.344 µM)	1.56 (≈ 1.38 µM)	1.56 (≈ 1.38 µM)	1.56 (≈ 1.38 µM)	1.56 (≈ 1.38 µM)	1.56 (≈ 1.38 µM)	0.78 (≈ 0.689 µM)	12.5 (≈ 11 µM)	1.56 (≈ 1.38 µM)	
COC1C(C)OC(OC(=O)CC(C)CC(=O)OC(CCCCCCCCC(C)C)CC(=O)OC2CN(C)C(C(OC3OC(CN)C(O)C3O)C3OC(n4ccc(=O)[nH]c4=O)C(O)C3O)C(=O)N(C)C2C(=O)O)C(OC)C1OC (stereo not shown) [Caprazamycin F, caprazamycin F]	0.1		1.56	1.56 (≈ 1.4 µM)	1.56 (≈ 1.4 µM)	0.78 (≈ 0.698 µM)	1.56 (≈ 1.4 µM)	0.78 (≈ 0.698 µM)	0.78 (≈ 0.698 µM)	0.78 (≈ 0.698 µM)	1.56 (≈ 1.4 µM)	0.78 (≈ 0.698 µM)	12.5 (≈ 11.2 µM)	0.78 (≈ 0.698 µM)	
CCCCCCCCCCCC(CC(=O)OC1CN(C)C(C(OC2OC(CN)C(O)C2O)C2OC(n3ccc(=O)[nH]c3=O)C(O)C2O)C(=O)N(C)C1C(=O)O)OC(=O)CC(C)CC(=O)OC1OC(C)C(OC)C(OC)C1OC (stereo not shown) [Caprazamycin E, caprazamycin E]	<0.025	0.78	0.78	1.56 (≈ 1.4 µM)	1.56 (≈ 1.4 µM)	0.39 (≈ 0.349 µM)	1.56 (≈ 1.4 µM)	0.78 (≈ 0.698 µM)	1.56 (≈ 1.4 µM)	0.78 (≈ 0.698 µM)	0.39 (≈ 0.349 µM)	0.78 (≈ 0.698 µM)	12.5 (≈ 11.2 µM)	0.39 (≈ 0.349 µM)	
COC1C(C)OC(OC(=O)CC(C)CC(=O)OC(CCCCCCCCCCC(C)C)CC(=O)OC2CN(C)C(C(OC3OC(CN)C(O)C3O)C3OC(n4ccc(=O)[nH]c4=O)C(O)C3O)C(=O)N(C)C2C(=O)O)C(OC)C1OC (stereo not shown) [Caprazamycin B, caprazamycin B]	<0.025	1.56	0.78	3.13 (≈ 2.73 µM)	3.13 (≈ 2.73 µM)	0.39 (≈ 0.34 µM)	3.13 (≈ 2.73 µM)	3.13 (≈ 2.73 µM)	1.56 (≈ 1.36 µM)	1.56 (≈ 1.36 µM)	1.56 (≈ 1.36 µM)	1.56 (≈ 1.36 µM)	50 (≈ 43.6 µM)	1.56 (≈ 1.36 µM)	MIC [15]: 3.13 µg/mL (≈ 2.73 µM); MIC [16]: 3.13 µg/mL (≈ 2.73 µM); MIC [17]: 3.13 µg/mL (≈ 2.73 µM); MIC [18]: 3.13 µg/mL (≈ 2.73 µM); MIC [19]: 3.13 µg/mL (≈ 2.73 µM); MIC [20]: 1.56 µg/mL (≈ 1.36 µM); Toxicity [21]: did not exhibit any toxicity; MIC [22]: 12.5 µg/mL (≈ 10.9 µM); MIC [23]: 3.13 µg/mL (≈ 2.73 µM); MIC [24]: 6.25 µg/mL (≈ 5.45 µM); MIC [25]: 6.25 µg/mL (≈ 5.45 µM); MIC [26]: 100 µg/mL (≈ 87.2 µM); MIC [27]: 6.25 µg/mL (≈ 5.45 µM); MIC [28]: 3.13 µg/mL (≈ 2.73 µM); MIC [29]: 3.13 µg/mL (≈ 2.73 µM); MIC [30]: 0.78 µg/mL (≈ 0.68 µM)
CCCCCCCCCCCCCC(CC(=O)OC1CN(C)C(C(OC2OC(CN)C(O)C2O)C2OC(n3ccc(=O)[nH]c3=O)C(O)C2O)C(=O)N(C)C1C(=O)O)OC(=O)CC(C)CC(=O)OC1OC(C)C(OC)C(OC)C1OC (stereo not shown) [Caprazamycin A, caprazamycin A]	<0.025	1.56	0.78	1.56 (≈ 1.36 µM)	1.56 (≈ 1.36 µM)	0.2 (≈ 0.174 µM)	1.56 (≈ 1.36 µM)	0.78 (≈ 0.68 µM)	1.56 (≈ 1.36 µM)	0.78 (≈ 0.68 µM)	0.78 (≈ 0.68 µM)	0.78 (≈ 0.68 µM)	6.25 (≈ 5.45 µM)	0.78 (≈ 0.68 µM)	
